Results on 11 molecules are retold here after patent publication US9428771B2, “Method for the oxidation of organic compounds” (STUDIENGE[…] MBH, priority 2010, dated 2016).

In series [1] the target is T1, P450 BM3 (Priestia megaterium, UniProt P14779). Briefly: P450 BM3 catalysed oxidation of methane to methanol in the presence of an additive. The format is biochemical, Bacillus megaterium. On the set-up: polyhistidine (His6) tag from vector pETM11 (N); made in house; host or cells: E. coli BL21 (DE3) GOLD. Particulars: 1 mM additive, 25° C; for Total product formed (methanol): 7% methane, 8% O2, 85% N2, 10 bar; for TON: methane, 10 bar. As for the experimental part: (§1) The hydroxylation of gaseous alkanes was carried out in a self-constructed low-pressure reactor. […] Subsequently the reaction vessels were linked to a gas bottle via a multichannel gas feed. The following gas mixtures were used to flush the apparatus and to apply a pressure of 10 bar to the reaction solution: a) 7% methane, 8% oxygen, 85% nitrogen, b) 7% propane, 8% oxygen, 85% nitrogen or c) 10% butane, 8% oxygen, 82% nitrogen. The reaction mixture was stirred at 100 rpm with a crosshead-shaped magnetic stirrer (VWR). At the end of the reaction the pressure was carefully released from the reaction vessels, a 1 ml aliquot was centrifuged for 10 min at 13 000 rpm and analyzed by HPLC. […] Each experiment comprised at least one positive control for the enzyme activity, in which dodecanoic acid was added as additive (1 mM final concentration, from a 100 mM stock in DMSO), while the enzyme was exposed to 10 bar of the gaseous alkane mixture. The reaction of dodecanoic acid was analyzed using decanoic acid (1 mM final concentration, from a 100 mM stock in DMSO) as standard. The samples were extracted for the GC analysis with 0.5 volume of MTBE and were analyzed by GC.
T1 sequence (P14779 whole entry): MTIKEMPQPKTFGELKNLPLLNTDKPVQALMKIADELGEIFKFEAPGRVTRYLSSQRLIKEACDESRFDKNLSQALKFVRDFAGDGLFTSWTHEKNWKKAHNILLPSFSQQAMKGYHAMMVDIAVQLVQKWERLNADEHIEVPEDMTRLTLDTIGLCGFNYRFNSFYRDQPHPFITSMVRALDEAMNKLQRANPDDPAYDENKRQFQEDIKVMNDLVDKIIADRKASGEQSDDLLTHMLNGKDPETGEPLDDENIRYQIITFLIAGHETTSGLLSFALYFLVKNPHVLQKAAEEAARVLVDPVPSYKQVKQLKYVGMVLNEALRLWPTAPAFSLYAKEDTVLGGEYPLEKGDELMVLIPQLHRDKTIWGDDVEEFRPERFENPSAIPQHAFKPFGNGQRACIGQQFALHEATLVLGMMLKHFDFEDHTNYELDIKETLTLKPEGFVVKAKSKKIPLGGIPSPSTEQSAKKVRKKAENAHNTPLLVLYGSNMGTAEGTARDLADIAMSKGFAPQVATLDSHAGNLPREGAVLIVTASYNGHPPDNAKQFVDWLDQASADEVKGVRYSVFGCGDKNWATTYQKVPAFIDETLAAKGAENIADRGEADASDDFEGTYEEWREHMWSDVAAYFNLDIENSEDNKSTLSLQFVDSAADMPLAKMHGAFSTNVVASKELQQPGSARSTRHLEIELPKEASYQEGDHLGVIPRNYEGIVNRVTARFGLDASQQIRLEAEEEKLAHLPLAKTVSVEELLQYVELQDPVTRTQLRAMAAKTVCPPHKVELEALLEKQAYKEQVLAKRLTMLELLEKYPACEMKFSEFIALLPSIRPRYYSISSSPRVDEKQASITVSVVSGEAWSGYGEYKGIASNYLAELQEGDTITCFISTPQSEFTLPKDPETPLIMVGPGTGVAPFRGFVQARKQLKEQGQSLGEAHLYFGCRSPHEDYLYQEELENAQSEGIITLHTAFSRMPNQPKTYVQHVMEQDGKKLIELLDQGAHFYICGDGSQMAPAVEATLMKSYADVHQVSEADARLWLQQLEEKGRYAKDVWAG
30 min isotherm, 60-240° C. at 16° C./min, 240° C. for 5 min isotherm.
The quantification of propanol and butanol was carried out using the RID-10A detector, while the quantification of methanol was carried out using the RID-10A or, preferably, the ED 50 detector. The ED 50 detector was operated in integrated, amperometric detection mode with an Ag reference electrode in the range of 300 nC. The detection was carried out in waveform as follows: […]

Series [2] addresses T1, P450 BM3. Briefly: P450 BM3 catalysed oxidation of butane and propane in the presence of additives. The format is biochemical, Bacillus megaterium. On the set-up: polyhistidine (His6) tag from vector pETM11 (N); made in house; host or cells: E. coli BL21 (DE3) GOLD. Particulars: 1 mM additive, 25° C; for % ee: Butane oxidation product; for TON: 10 bar. As for the experimental part:
as §1
The quantification of propanol and butanol was carried out using the RID-10A detector, while the quantification of methanol was carried out using the RID-10A or, preferably, the ED 50 detector. The ED 50 detector was operated in integrated, amperometric detection mode with an Ag reference electrode in the range of 300 nC. The detection was carried out in waveform as follows:
The P450 BM3 catalysed oxidation of butane and propane was carried out in the presence or absence of additives 1 under standard conditions as follows: 2.5 ml reaction volume, 5 ml gas volume, 1% DMF, 100 mM KPi, pH 8.0, 10 bar pressure (10% n-butane, 8% O2, 82% N2; 7% propane, 8% O2, 85% N2), propane oxidation: 14.5 h, butane oxidation: 17.5 h., 25° C.

Series [3] concerns the target T1, P450 BM3. Particulars: 1 mM additive, 20° C; for TON: mol of product/mol of enzyme; for Regioselectivity: 1 hour.
Experimental: For hydroxylating alkanes, for example C6 and C8 alkanes, the substrate was added to the reaction solution from a 160 mM stock in EtOH and was adjusted to a final concentration of 3.2 mM. The solution further comprised 0.1 M glucose (Riedel de Haen), 1 mM NADP^+ (Codexis, Jülich, Germany), 1 U/ml GDH (#001, Codexis, Jülich, Germany), 1 mM additive (unless otherwise stated), BM3-WT enzyme and 100 mM KPi, pH 8.0 with a total volume of 20 ml. The reactions were shaken for 1 hour at 20° C. in a 50 ml Falcon reaction tube in a bacterial incubator at 130 rpm. After one hour, three aliquots were removed, each of 1 ml volume, and acidified with 0.1 ml of 10% HCl. Subsequently 1 mM 1-pentanol was added as internal standard. The mixture was extracted with half a volume of MTBE and analyzed by gas chromatography.
Hydroxylation products were analyzed by GC using the following instruments and under the following conditions: HP6890+7683HP (Hewlett Packard, USA); column: 15 m Stabilwax phase, internal diameter 0.25 mm, film thickness 0.5 μm, (J&W, Germany); pressure: 0.8 bar H2; split rate 60; injector: 220° C.; temperature gradient: 40° C. 4 min isotherm, 40-60° C. at 4° C./min, 60° C.-250° C. at 15° C./min. FID detector. The product peaks were quantified as a ratio to the 1 mM 1-pentanol peak using the following, previously determined, correction factors: 2-octanol: 2.36; 3-,4-octanol: 2.23; 2-,3-hexanol:1.218; 3-Me-3-PeOH,3-Me-2-PeOH: 1.49; 3,3-Di-Me-2-BuOH: 1.43; 2,3-Di-Me-BuOH: 1.317.
Reaction conditions: 3.2 mM alkane; 1% v/v DMF; 2% v/v ethanol; 100 mM glucose, 1 mM NADP^+, 1 U/ml GDH, 1 mM additive, 100 mM KPi, pH 8.0, total volume 20 ml; 1 hour; 20° C. The P450-BM3 concentration depended on the compound used 2: 1 μM, 3: 2.9 μM, 4: 2.9 μM, 5: 1.1 μM, 6: 2.7 μM)
The turnover numbers (TON) were calculated (mol of product/mol of enzyme) for the enzyme at the end of the reaction.
Where [4] appears, read: Butane (10% n-butane, 8% O2, 82% N2, 10 bar), 2.3 μM enzyme, 17.5 h.
[5] abbreviates: alkane 2 (3.2 mM), 1 μM P450-BM3, 1 hour.
Setting [6] is: alkane 4 (3.2 mM), 2.9 μM P450-BM3, 1 hour.
The mark [7] stands for this setting: alkane 5 (3.2 mM), 1.1 μM P450-BM3, 1 hour.
Setting [8] is: alkane 3 (3.2 mM), 2.9 μM P450-BM3, 1 hour.
The mark [9] stands for this setting: alkane 6 (3.2 mM), 2.7 μM P450-BM3, 1 hour.
Where [10] appears, read: Propane (7% propane, 8% O2, 85% N2, 10 bar), 2.9 μM enzyme, 14.5 h.

Like-named read-outs stand apart in the source and are kept apart here.

For `OCCCC(F)(F)C(F)(F)C(F)(F)C(F)(F)C(F)(F)C(F)(F)C(F)(F)C(F)(F)F` [1H, 1H, 2H, 2H, 3H, 3H-Perfluoroundecano, 1H, 1H, 1H, 2H, 2H, 3H, 3H-perfluoroundecanol], on P450 BM3 [1] (19 h), the “Total product formed (methanol)” value worked out at 0.84 mM and the TON is 630.

As for `OCCC(F)(F)C(F)(F)C(F)(F)C(F)(F)C(F)(F)C(F)(F)F` [1H, 1H, 2H, 2H-perfluorooctan-1-ol], at P450 BM3 [1] (19 h), the “Total product formed (methanol)” value came out at 2.53 mM and the TON worked out at 1889.

Consider `OCCCCCCC(F)(F)C(F)(F)F` [6(perfluoroethyl)hexanol, 6-(perfluoroethyl)hexanol], for which, at P450 BM3 [1] (19 h), the “Total product formed (methanol)” value is 2.69 mM and the TON was determined as 2006.

Turning to `O=C(O)C(F)(F)F` [Additive 1a], the Total product formed on P450 BM3 [2] (setting [4]) came out at 1.1 mM. The “% ee” value on P450 BM3 [2] (17.5 h) is 32%. The TON on P450 BM3 [2] (Butane, 2.3 μM enzyme, 17.5 h) worked out at 469.

For the molecule `O=C(O)C(F)(F)C(F)(F)C(F)(F)C(F)(F)C(F)(F)C(F)(F)F` [Additive 1b, perfluoroheptanoic acid], at P450 BM3 [2] (setting [4]), the Total product formed is 8.4 mM. Besides, at P450 BM3 [2] (17.5 h), the “% ee” value amounted to 22%. In addition, on P450 BM3 [2] (Butane, 2.3 μM enzyme, 17.5 h), the TON came out at 3632.

As to `O=C(O)C(F)(F)C(F)(F)C(F)(F)C(F)(F)C(F)(F)C(F)(F)C(F)(F)C(F)(F)F` [Additive 1c, perfluorononanoic acid], the Total product formed on P450 BM3 [3] (setting [5]) was 1.16 mM; on P450 BM3 [3] (setting [6]), 1.36 mM; on P450 BM3 [3] (setting [7]) it was 0.96 mM; at P450 BM3 [2] (setting [4]), 2.0 mM. The TON stood at 1184 at P450 BM3 [3] (setting [5]); 476 on P450 BM3 [3] (setting [6]); 892 on P450 BM3 [3] (setting [7]); 2053 at P450 BM3 [1] (1.3 μM enzyme, 21 h); 879 on P450 BM3 [2] (Butane, 2.3 μM enzyme, 17.5 h). The Regioselectivity entry on P450 BM3 [3] (alkane 5 (3.2 mM), cell reads: only 2-Hydroxy-3,3-dimethylbutane) is “only 2-Hydroxy-3,3-”. Further, the “Total product formed (methanol)” value on P450 BM3 [1] (1.3 μM enzyme, 21 h) was 2.75 mM. The “% ee” value on P450 BM3 [2] (17.5 h) came to 23%.

Take `O=C(O)C(F)(F)C(F)(F)C(F)(F)C(F)(F)C(F)(F)C(F)(F)C(F)(F)C(F)(F)C(F)(F)F` [Additive 1d, perfluorodecanoic acid]: on P450 BM3 [1] (1.3 μM enzyme, 21 h), the “Total product formed (methanol)” value is 3.31 mM and the TON is given as 2472. The Total product formed at P450 BM3 [2] (setting [4]) is recorded as 3.9 mM. For the same molecule, at P450 BM3 [2] (17.5 h), the “% ee” value worked out at 20%. The TON on P450 BM3 [2] (Butane, 2.3 μM enzyme, 17.5 h) was found to be 1699.

Regarding `O=C(O)C(F)(F)C(F)(F)C(F)(F)C(F)(F)C(F)(F)C(F)(F)C(F)(F)C(F)(F)C(F)(F)C(F)(F)F` [Additive 1e, perfluoroundecanoic acid], the Total product formed is on record as 1.50 mM on P450 BM3 [3] (setting [8]), 0.19 mM at P450 BM3 [3] (setting [9]), 5.8 mM at P450 BM3 [2] (setting [4]) and 3.0 mM at P450 BM3 [2] (setting [10]). Moreover, the TON on P450 BM3 [3] (setting [8]) is 525; at P450 BM3 [3] (setting [9]), 3241; at P450 BM3 [1] (1.3 μM enzyme, 21 h) it was 1353; on P450 BM3 [2] (Butane, 2.3 μM enzyme, 17.5 h), 2519; at P450 BM3 [2] (Propane, 2.9 μM enzyme, 14.5 h) it was 1021. For the same molecule, the Regioselectivity entry at P450 BM3 [3] (alkane 6 (3.2 mM), cell reads: only 2-Hydroxy-2,3-dimethylbutane) is “only 2-Hydroxy-2,3-”. Moreover, the “Total product formed (methanol)” value on P450 BM3 [1] (1.3 μM enzyme, 21 h) is recorded as 1.81 mM. In addition, the “% ee” value on P450 BM3 [2] (17.5 h) came to 19%.

For the molecule `O=C(O)C(F)(F)C(F)(F)C(F)(F)C(F)(F)C(F)(F)C(F)(F)C(F)(F)C(F)(F)C(F)(F)C(F)(F)C(F)(F)F` [Additive 1f, perfluorododecanoic acid], at P450 BM3 [1] (1.3 μM enzyme, 21 h), the “Total product formed (methanol)” value was 1.25 mM and the TON is reported as 933. Also, the Total product formed at P450 BM3 [2] (setting [10]) turned out to be 0.67 mM. Besides, the TON on P450 BM3 [2] (Propane, 2.9 μM enzyme, 14.5 h) is given as 227.

Turning to `O=C(O)C(F)(F)C(F)(F)C(F)(F)C(F)(F)C(F)(F)C(F)(F)C(F)(F)C(F)(F)C(F)(F)C(F)(F)C(F)(F)C(F)(F)F` [Additive 1g, perfluorotridecanoic acid], at P450 BM3 [1] (1.3 μM enzyme, 21 h), the “Total product formed (methanol)” value is 0.75 mM and the TON came out at 560.

`O=C(O)C(F)(F)C(F)(F)C(F)(F)C(F)(F)C(F)(F)C(F)(F)C(F)(F)C(F)(F)C(F)(F)C(F)(F)C(F)(F)C(F)(F)C(F)(F)F` [Additive 1h, perfluorotetradecanoic acid]: the “Total product formed (methanol)” value at P450 BM3 [1] (1.3 μM enzyme, 21 h) came out at 0.28 mM. For the same molecule, the TON is 210 at P450 BM3 [1] (1.3 μM enzyme, 21 h) and 170 on P450 BM3 [2] (Propane, 2.9 μM enzyme, 14.5 h). Further, the Total product formed at P450 BM3 [2] (setting [10]) was 0.50 mM.
